Data on 8 compounds can be found in ChEMBL document CHEMBL3137667, “[Drug-induced liver injury; fourteenth updated edition of the bibliographic database of liver injuries and related drugs]” (Gastroenterol Clin Biol, 2004).

For data set [1] the following is noted: human, serum.
The conditions of data set [2]: human.
Data set [3] in a line: Presence of at least one case with successful reintroduction. [column 'REINT' in source]. Particulars: human.
For data set [4] the following is noted: human. The source holds these as a separate data set.
For data set [5] the following is noted: human. This is another data set of the same source.
For data set [6] the following is noted: human. The source holds these as a separate data set.
The conditions of data set [7]: human, serum. This is another data set of the same source.
The conditions of data set [8]: human. The source holds these as a separate data set.
The conditions of data set [9]: human. This is another data set of the same source.
The conditions of data set [10]: human. This is another data set of the same source.
The conditions of data set [11]: human. This is another data set of the same source.
For data set [12] the following is noted: human, serum, 4383 h.
A short description of data set [13]: Highest frequency of moderate liver toxicity observed during clinical trials, expressed as a percentage. [column '% BIOL' in source]. Particulars: human.
The conditions of data set [14]: human. This is another data set of the same source.
Data set [15] in a line: Times to onset, minimal and maximal, observed in the indexed observations. [column 'DELAI' in source]. The following applies: human.
Data set [16] can be described thus: Highest frequency of acute liver toxicity observed during clinical trials, expressed as a percentage. [column '% AIGUE' in source]. Particulars: human.
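Throughout, for Hepatotoxicity (association with vascular disease): count of indexed literature references reporting vascular liver injury in humans, e.g. peliosis hepatitis, hepatic veno-occlusive disease or Budd-Chiari syndrome.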
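Throughout, for Hepatotoxicity (benign tumour): value is a count of indexed literature references citing a benign tumour confirmed by histopathology.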
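Throughout, for Hepatotoxicity (choleostasis): human cholestatic liver injury, shown by histopathology or by peak ALT or AST elevation over alkaline phosphatase ratio below 2, value counts indexed literature reports.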
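Throughout, for Hepatotoxicity (chronic liver disease): chronic liver injury confirmed by histopathology or persistently raised serum aminotransferase activity beyond 6 months, value given as the count of indexed literature references.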
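Throughout, for Hepatotoxicity (cirrhosis): value is a count of indexed literature references reporting cirrhosis confirmed by histopathology.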
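Throughout, for Hepatotoxicity (cytolytic): human cytolytic liver injury, shown by histopathology or by a ratio above 5 of peak ALT or AST elevation to alkaline phosphatase elevation, value counts indexed references.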
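Throughout, for Hepatotoxicity (granulomatous hepatitis): value is a count of indexed literature references reporting granulomatous liver disease confirmed by histopathology.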
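Throughout, for Hepatotoxicity (malignant tumour): malignant tumour confirmed by histopathology, value gives the count of indexed literature references reporting it.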
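Throughout, for Hepatotoxicity (severe hepatitis): human clinical data: severe hepatitis, meaning potentially life-threatening liver failure or clinically observed cases, the value counts how many indexed literature references report it.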
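Throughout, for Hepatotoxicity (steatosis): steatosis confirmed by histopathology, value is the count of indexed references.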

Take `CCCCc1nc(Cl)c(CO)n1Cc1ccc(-c2ccccc2-c2nn[nH]n2)cc1` [LOSARTAN]: the “Hepatotoxicity (moderate)” value in [1] amounted to 11; in data set [13], 20%. The “Hepatotoxicity (association with vascular disease)” value in [2] amounted to 0. Further, in [3], the “Hepatotoxicity (successful reintroduction)” value is given as “yes”. For the same compound, in data set [4], the “Hepatotoxicity (cytolytic)” value was found to be 4. For the same compound, the “Hepatotoxicity (severe hepatitis)” value in data set [5] turned out to be 1. Moreover, the “Hepatotoxicity (benign tumour)” value in data set [6] was determined as 0. Further, the “Hepatotoxicity (acute)” value was found to be 5 in data set [7] and 0% in [16]. Also, in data set [8], the “Hepatotoxicity (granulomatous hepatitis)” value amounted to 0. The “Hepatotoxicity (choleostasis)” value in [9] was determined as 0. Besides, the “Hepatotoxicity (cirrhosis)” value in data set [10] is reported as 0. Also, the “Hepatotoxicity (steatosis)” value in data set [11] is reported as 0. Besides, the “Hepatotoxicity (chronic liver disease)” value in [12] came to 1. The “Hepatotoxicity (malignant tumour)” value in [14] is listed as 0. Also, the “Hepatotoxicity (time to onset)” value in [15] is listed as 2 weeks - 5 months.

In the case of `[Li]` [LITHIUM], the figures for the “Hepatotoxicity (moderate)” value in data set [1] and in [13] were 4 and 0%, respectively. Also, in [2], the “Hepatotoxicity (association with vascular disease)” value is listed as 0. Also, the “Hepatotoxicity (successful reintroduction)” value in data set [3] was “yes”. Besides, the “Hepatotoxicity (cytolytic)” value in data set [4] is on record as 0. Further, the “Hepatotoxicity (severe hepatitis)” value in data set [5] is recorded as 0. Moreover, the “Hepatotoxicity (benign tumour)” value in data set [6] is on record as 0. Further, the “Hepatotoxicity (acute)” value in data set [7] is on record as 0; in data set [16], 0%. For the same compound, the “Hepatotoxicity (granulomatous hepatitis)” value in [8] was 0. Also, the “Hepatotoxicity (choleostasis)” value in [9] turned out to be 0. In [10], the “Hepatotoxicity (cirrhosis)” value is given as 0. Moreover, the “Hepatotoxicity (steatosis)” value in data set [11] stood at 0. For the same compound, the “Hepatotoxicity (chronic liver disease)” value in data set [12] came out at 1. Also, the “Hepatotoxicity (malignant tumour)” value in [14] is 0. Besides, in [15], the “Hepatotoxicity (time to onset)” value was 2 days - 2 months.

FILGRASTIM: the “Hepatotoxicity (moderate)” value in data set [1] is 7; in [13], 75%. In data set [2], the “Hepatotoxicity (association with vascular disease)” value is 0. Besides, the “Hepatotoxicity (successful reintroduction)” value in data set [3] is listed as “yes”. Besides, the “Hepatotoxicity (cytolytic)” value in data set [4] worked out at 2. Also, the “Hepatotoxicity (severe hepatitis)” value in [5] came to 0. Besides, the “Hepatotoxicity (benign tumour)” value in data set [6] turned out to be 0. The “Hepatotoxicity (acute)” value in data set [7] is recorded as 2; in [16] it was 0%. Also, the “Hepatotoxicity (granulomatous hepatitis)” value in data set [8] is listed as 0. Moreover, in [9], the “Hepatotoxicity (choleostasis)” value is 1. Also, the “Hepatotoxicity (cirrhosis)” value in data set [10] came out at 0. Besides, the “Hepatotoxicity (steatosis)” value in data set [11] came to 0. Moreover, the “Hepatotoxicity (chronic liver disease)” value in data set [12] came out at 0. In addition, in [14], the “Hepatotoxicity (malignant tumour)” value was 0. In addition, the “Hepatotoxicity (time to onset)” value in [15] is given as 3 days - 8 days.

`NCCS` [CYSTEAMINE]: the “Hepatotoxicity (moderate)” value in data set [1] is 0; in data set [13], 0%. Also, in data set [2], the “Hepatotoxicity (association with vascular disease)” value amounted to 1. For the same compound, the “Hepatotoxicity (successful reintroduction)” value in data set [3] is “yes”. Further, the “Hepatotoxicity (cytolytic)” value in [4] amounted to 1. The “Hepatotoxicity (severe hepatitis)” value in data set [5] is listed as 0. Also, the “Hepatotoxicity (benign tumour)” value in data set [6] stood at 0. Besides, the “Hepatotoxicity (acute)” value worked out at 1 in [7] and 0% in data set [16]. In addition, the “Hepatotoxicity (granulomatous hepatitis)” value in data set [8] is 0. Further, the “Hepatotoxicity (choleostasis)” value in data set [9] is reported as 0. The “Hepatotoxicity (cirrhosis)” value in [10] turned out to be 0. Also, in [11], the “Hepatotoxicity (steatosis)” value is listed as 0. Also, in data set [12], the “Hepatotoxicity (chronic liver disease)” value was 0. In addition, in data set [14], the “Hepatotoxicity (malignant tumour)” value is 0. Also, the “Hepatotoxicity (time to onset)” value in [15] is 2 weeks - 2 years.

With PEGVISOMANT, the “Hepatotoxicity (moderate)” value was 0 in [1] and 0% in data set [13]. In [2], the “Hepatotoxicity (association with vascular disease)” value is given as 0. In addition, in data set [3], the “Hepatotoxicity (successful reintroduction)” value is given as “yes”. Moreover, in [4], the “Hepatotoxicity (cytolytic)” value is 2. Besides, the “Hepatotoxicity (severe hepatitis)” value in [5] came out at 0. Further, the “Hepatotoxicity (benign tumour)” value in [6] stood at 0. Besides, the “Hepatotoxicity (acute)” value in data set [7] stood at 2; in [16], 1.3%. Also, the “Hepatotoxicity (granulomatous hepatitis)” value in data set [8] turned out to be 0. In addition, the “Hepatotoxicity (choleostasis)” value in data set [9] is 0. For the same compound, the “Hepatotoxicity (cirrhosis)” value in data set [10] stood at 0. Besides, the “Hepatotoxicity (steatosis)” value in [11] amounted to 0. Moreover, the “Hepatotoxicity (chronic liver disease)” value in [12] turned out to be 0. The “Hepatotoxicity (malignant tumour)” value in [14] is given as 0. The “Hepatotoxicity (time to onset)” value in [15] came out at 4 weeks - 8 weeks.

For `CCc1oc2ccccc2c1C(=O)c1cc(Br)c(O)c(Br)c1` [BENZBROMARONE], the entries for the “Hepatotoxicity (moderate)” value in [1] and in data set [13] were 1 and 0%, respectively. Moreover, the “Hepatotoxicity (association with vascular disease)” value in [2] was 0. Also, in [3], the “Hepatotoxicity (successful reintroduction)” value is listed as “yes”. Also, in [4], the “Hepatotoxicity (cytolytic)” value was 5. The “Hepatotoxicity (severe hepatitis)” value in data set [5] was 4. Further, the “Hepatotoxicity (benign tumour)” value in [6] was 0. Also, the “Hepatotoxicity (acute)” value in data set [7] is 5; in data set [16], 0%. Moreover, the “Hepatotoxicity (granulomatous hepatitis)” value in data set [8] came to 0. Besides, the “Hepatotoxicity (choleostasis)” value in [9] came out at 0. Further, in data set [10], the “Hepatotoxicity (cirrhosis)” value is recorded as 0. For the same compound, the “Hepatotoxicity (steatosis)” value in data set [11] worked out at 0. For the same compound, the “Hepatotoxicity (chronic liver disease)” value in data set [12] stood at 0. The “Hepatotoxicity (malignant tumour)” value in [14] is recorded as 0. Also, the “Hepatotoxicity (time to onset)” value in data set [15] came out at 1.5 months - 5 months.

With `Cc1ncsc1CCCl` [CLOMETHIAZOLE], the “Hepatotoxicity (moderate)” value in data set [1] amounted to 1; in [13] it was 0%. In addition, the “Hepatotoxicity (association with vascular disease)” value in data set [2] is reported as 0. Further, in data set [3], the “Hepatotoxicity (successful reintroduction)” value is “yes”. Also, in data set [4], the “Hepatotoxicity (cytolytic)” value came to 3. The “Hepatotoxicity (severe hepatitis)” value in data set [5] is given as 2. In addition, in data set [6], the “Hepatotoxicity (benign tumour)” value worked out at 0. Moreover, the “Hepatotoxicity (acute)” value in data set [7] came to 3; in data set [16] it was 0%. For the same compound, the “Hepatotoxicity (granulomatous hepatitis)” value in data set [8] turned out to be 0. Further, in data set [9], the “Hepatotoxicity (choleostasis)” value came out at 1. The “Hepatotoxicity (cirrhosis)” value in data set [10] worked out at 0. Moreover, the “Hepatotoxicity (steatosis)” value in data set [11] worked out at 0. In addition, the “Hepatotoxicity (chronic liver disease)” value in [12] came to 0. The “Hepatotoxicity (malignant tumour)” value in data set [14] is 0. Also, in data set [15], the “Hepatotoxicity (time to onset)” value is 3 days - 40 days.

For `Nc1cc(-c2ccncc2)c[nH]c1=O` [INAMRINONE], the results for the “Hepatotoxicity (moderate)” value in data set [1] and in data set [13] were 9 and 33%, respectively. In addition, the “Hepatotoxicity (association with vascular disease)” value in [2] stood at 0. Besides, the “Hepatotoxicity (successful reintroduction)” value in [3] is on record as “yes”. In addition, in data set [4], the “Hepatotoxicity (cytolytic)” value stood at 2. Moreover, the “Hepatotoxicity (severe hepatitis)” value in data set [5] amounted to 0. In addition, in [6], the “Hepatotoxicity (benign tumour)” value worked out at 0. The “Hepatotoxicity (acute)” value in data set [7] was 6; in data set [16], 0%. Besides, the “Hepatotoxicity (granulomatous hepatitis)” value in data set [8] came to 0. Further, in data set [9], the “Hepatotoxicity (choleostasis)” value turned out to be 2. Moreover, the “Hepatotoxicity (cirrhosis)” value in data set [10] stood at 0. Besides, in [11], the “Hepatotoxicity (steatosis)” value is recorded as 0. Further, the “Hepatotoxicity (chronic liver disease)” value in data set [12] is reported as 0. The “Hepatotoxicity (malignant tumour)” value in data set [14] is given as 0. The “Hepatotoxicity (time to onset)” value in data set [15] is 1 week - 3 weeks.
